Laboratory results from patent US20210161842A1, “ABSCISIC ACID FOR THE TREATMENT OF SKIN DISEASES” (priority 2018, published 2021).

Assays:
[1] = system: Pseudomonas aeruginosa CECT 116; assay: cfu in P. aeruginosa culture (bacteriostatic/bactericide effect); format: cell-based; conditions: methyl jasmonate alone
Protocol: (§1) In this example several concentrations of ABA ((+)-(S)-cis,trans-abscisic acid (synonym of (S)-5-(1-hydroxy-2,6,6-trimethyl-4-oxo-2-cyclohexen-1-yl)-3-methyl-(2Z,4E)-pentadienoic acid)) (60 μg/ml, 30 μg/ml, 15 μg/ml, 5 μg/ml) were tested in a culture of P. acnes. Different amounts of the Morinda citrifolia cell lysate disclosed in Example 6 below were also tested in the same conditions (60%, 30%, 10%, 1%, 0.5%) by weight of cell lysate in the P. acnes culture. […] The same protocol was followed with a culture of S. aureus and with a culture of M. furfur. Data are shown in next Tables 1.1 to 1.6, where bacteriostatic and bactericide concentrations are listed. Underlined concentrations are the considered bacteriostatic or fungistatic amounts and that they avoid biofilm formation.
S. aureus, P. aeruginosa, P. acnes, and M. furfur subcultures were carried out from the stock by streaking onto determined medium and incubated according to the conditions specified for each of the microorganisms according to standard procedures and as indicated below: […]
Inventors also tested the effect of methyl jasmonate in P. acnes, S. aureus, M. furfur and P. aeruginosa. […] A bactericide effect was detected at 60% w/w.

[2] = system: lesional skin biopsies from psoriasis patients; assay: Inflammatory marker mRNA in full-thickness lesional skin biopsies of psoriasis patients (ex vivo, RT-PCR); format: cell-based, human; conditions: patient with psoriatic plaque; 8 days at 37° C.; ABA 2 μL/ml; dexamethasone as control
Protocol: (§2) In skin biopsies of patients with plaque psoriasis and from patients with atopic dermatitis, it was determined the expression of several inflammatory markers (Interleukin 23A (IL-23A), C-X-C motif chemokine 10 (CXCL10), Interleukin 8 (IL-8), Interleukin 20 (IL-20), Intercellular Adhesion Molecule 1 (ICAM-1), LNC2, DEF-4, Keratin 16 (K-16), Interferon gamma (IFNg) and Interleukin 17A (IL-17A) using commercially available PCR tools for their determinations (RT-PCR by RNeasy Fibrous Tissue Mini kit and cDNA Archive kit, Sigma, ABlprism 7900HT and TaqMan probes). As a control, dexamethasone was used.
(§3) Full-thickness lesional skin biopsies from untreated atopic dermatitis and psoriasis patients were incubated in KBM medium supplemented with Ca2Cl for 8 days at 37° C., conditions that preserve human skin lesional in vitro. The different culture conditions were media, ABA (2 μL/ml (+)-(S)-cis,trans-abscisic acid). Medium was changed every 2-3 days. After incubation biopsies were cryopreserved in OCT at −80 until total mRNA was extracted with miRNeasy kit (Qiagen) according to manufacturer's protocol. RNA quality and quantity were checked using Nanodrop. RNA was conserved in RNase free water at −80° C. until analysis. RNA was converted to cDNA using the HighCapacity cDNA Reverse Transcription Kits (Applied Biosystems). Quantitative PCR was performed using TaqMan PreAmp Master Mix Kit (Applied Bioscience) and the TaqMan Gene Expression Master Mix (Applied Bioscience) following the manufacturers' protocols. Gene expression was normalized to the house-keeping gene Glyceraldehyde 3-phosphate dehydrogenase (GADPH) and normalized for each condition as 1,8e (Ct GADPH-Ct target gene) ×10000. […]
This cell culture lysate was a callus cell lysate and it was used at a final concentration of 20 μg/ml of media (KBM medium supplemented with Ca2Cl as in the assay with ABA alone). As positive or comparative control, dexamethasone (1 μM in the culture) was used.
(§4) Patients from which biopsies were obtained included 5 psoriatic cases and 3 atopic dermatitis cases.

[3] = system: lesional skin biopsies from atopic dermatitis patients; assay: Inflammatory marker mRNA in full-thickness lesional skin biopsies of atopic dermatitis patients (ex vivo, RT-PCR); format: cell-based, human; conditions: patient with atopic dermatitis plaque; 8 days at 37° C.; ABA 2 μL/ml; dexamethasone as control
Protocol: as §2, §3, §4

[4] = system: Tumoral necrosis factor alpha (TNF-α) in THP-1; assay: TNF-α levels (ELISA) in THP-1 monocytes inflamed with IL-17 and LPS; format: cell-based, human; conditions: IL-17 3 ng/ml + LPS 10 μg/ml 6 hours, then 24 hours; lysate 200, 20, 1 and 0.1 μg/ml (all doses); dexamethasone 10 μM
Protocol: (§5) In human monocytes line THP-1 (derived from patients with acute monocytic leukemia) inflammation was induces with IL-17 (3 ng/ml of culture) and lipopolysaccharide (LPS; 10 μg/ml) for 6 hours. After that different doses of the C. longa callus lysate were added (200 μg/ml, 20 μg/ml, 1 μg/ml and 0.1 μg/ml) for 24 hours. The assay was performed in 96-well plates. Tumoral necrosis factor alpha (TNF-α) and interleukine-8 (IL-8) levels were quantified by ELISA (fluorimetry, BD OpEIA, USA). One control was an assay with only the inflammatory agents at the same concentration to induce inflammation. Another control was were dexamethasone (10 μM)+Il-17/LPS.

[5] = system: interleukine-8 (IL-8) in THP-1; assay: IL-8 levels (ELISA) in THP-1 monocytes inflamed with IL-17 and LPS; format: cell-based, human; conditions: IL-17 3 ng/ml + LPS 10 μg/ml 6 hours, then 24 hours; lysate 200, 20, 1 and 0.1 μg/ml (all doses); dexamethasone 10 μM
Protocol: as §5

[6] = system: Propionibacterium acnes DSM 1897; assay: cfu in P. acnes culture 24 hours after inoculum (bacteriostatic/bactericide effect); format: cell-based; conditions: inoc. day 320000, control 1490000
Protocol: as §1
(§6) S. aureus, P. aeruginosa, P. acnes, and M. furfur subcultures were carried out from the stock by streaking onto determined medium and incubated according to the conditions specified for each of the microorganisms according to standard procedures and as indicated below:
(§7) Further it was tested a composition comprising 30% of Morinda citrifolia cell lysate and 30×10^−4% of abscisic acid ((+)-(S)-cis,trans-abscisic acid), glycerine and preservatives (q.s. 100%) in cultures of P. acnes, S. aureus, P. aeruginosa and M. furfur. The composition was used in the microbial culture at 5% and at 10% of the culture. […]

[7] = system: Staphylococcus aureus ATCC 6538; assay: cfu in S. aureus culture 24 hours after inoculum (bacteriostatic/bactericide effect); format: cell-based; conditions: ABA 60 μg/ml, inoc. day 520000, control 3310000
Protocol: as §1, §6, §7

[8] = system: Malassezia furfur ATCC 14521; assay: cfu in M. furfur culture 24 hours after inoculum (fungistatic/fungicide effect); format: cell-based; conditions: inoc. day 420000, control 1470000
Protocol: as §1, §6, §7

[9] = system: Candida albicans DSM 3454; assay: cfu in C. albicans culture (fungistatic/fungicide effect); format: cell-based; conditions: ABA 60 μg/ml; inoc. day 264000, control 456500
Protocol: (§8) Following the same scheme and procedure as in Examples 1-3 above, ABA 8((+)-(S)-cis,trans-abscisic acid)) and combinations of ABA with cell culture lysates or methyl jasmonate were tested on several microorganisms forming biofilms. As before, underlined concentrations are the considered bacteriostatic or fungistatic amounts and that they avoid biofilm formation.
(§9) Biofilm generation conditions and medium for the growth of the bacteria were those recommended by the supplier of each microorganism.

[10] = system: Streptococcus mutans DSM 20523; assay: cfu in S. mutans culture (bacteriostatic/bactericide effect); format: cell-based; conditions: inoc. day 200000, control 109000 × 10
Protocol: as §8, §9

[11] = system: Epidermophytum floccosum DSM 10709; assay: cfu in E. floccosum culture (fungistatic effect); format: cell-based; conditions: ABA 60 μg/ml; inoc. day 136000, control 587500
Protocol: as §8, §9

[12] = system: Candida albicans DSM 3454; assay: C. albicans biofilm on glass coupons (and planktonic growth in suspension); format: cell-based; conditions: ABA 60 μg/ml; inoc. day 184000, control 460000
Protocol: (§10) Generation of representative biofilms on borosilicate glass coupons (12.7 mm diameter and a thickness of 3.7 mm) by immersion of the coupons in a suspension of each microorganism with culture medium and the compounds of interest was tested. Evaluation of the antibiofilm properties and study of adhesion, growth and viability of biofilms on the coupons was analyzed by fluorescence staining technique and visualization of live/dead microbial was done by Laser Scanning Confocal Microscopy. The sampling and analysis of coupons to determine biofilm population density was recorded as colony-forming units (cfu) per coupon. In parallel, planktonic cells quantification in suspension was also determined.
(§11) For the determination of biofilm populations the microbial population adhered to the coupon surface were quantified by dilution and plating after biofilm disaggregation process by sonication and vortex cycles. The planktonic cells (suspension) were determined by dilution and plating. The controls were, respectively the cells on coupons or in suspension after 5 days without any treatment.
(§12) Following procedure as disclosed in Example 3, particular compositions comprising ABA ((+)-(S)-cis,trans-abscisic acid) and cell lysate of a plant cell culture of Morinda citrifolia were also tested in an assay on glass coupons that also served as example of biofilm formation on abiotic surfaces. […]

[13] = system: Epidermophytum floccosum DSM 10709; assay: E. floccosum biofilm on glass coupons (and planktonic growth in suspension); format: cell-based; conditions: ABA 60 μg/ml; inoc. day 96667, control 374333
Protocol: as §10, §11, §12

CC/C=C\CC1C(=O)CCC1CC(=O)OC (centres unmarked) [methyl jasmonate]
percentage by weight in the culture media with bactericide effect [1]: 60 % w/w

C[C@@H]1C[C@H]2[C@@H]3CCC4=CC(=O)C=C[C@]4(C)[C@@]3(F)[C@@H](O)C[C@]2(C)[C@@]1(O)C(=O)CO [dexamethasone, reference compound]
CXCL10 mRNA, % of inhibition vs Media (normalized) [2]: 8.7%
DEF-4 mRNA, % of inhibition vs Media (normalized) [2]: −15.7%
ICAM-1 mRNA, % of inhibition vs Media (normalized) [2]: 17.1%
IFNg mRNA, % of inhibition vs Media (normalized) [2]: 72.7%
IL-8 mRNA, % of inhibition vs Media (normalized) [2]: −70.1%
IL-17A mRNA, % of inhibition vs Media (normalized) [2]: 116.9%
IL-20 mRNA, % of inhibition vs Media (normalized) [2]: 5.5%
K-16 mRNA, % of inhibition vs Media (normalized) [2]: 27.8%
LNC2 mRNA, % of inhibition vs Media (normalized) [2]: 96.3%
CCL13 mRNA, % of inhibition vs Media (normalized) [3]: 28.4%
CCL17 mRNA, % of inhibition vs Media (normalized) [3]: −81.4%
CCL18 mRNA, % of inhibition vs Media (normalized) [3]: −9.1%
CCL26 mRNA, % of inhibition vs Media (normalized) [3]: −34.0%
FLG mRNA, % of inhibition vs Media (normalized) [3]: 270.4%
IFNg mRNA, % of inhibition vs Media (normalized) [3]: −100.0%
IL-13 mRNA, % of inhibition vs Media (normalized) [3]: −100.0%
K16 mRNA, % of inhibition vs Media (normalized) [3]: −39.8%
LOR mRNA, % of inhibition vs Media (normalized) [3]: 189.2%
TNF-α levels in relation to inflamed cells [4]: −56%
IL-8 levels in relation to inflamed cells [5]: −33%

(+)-(S)-cis,trans-abscisic acid [ABA]
CFU ([6]; ABA 30 μg/ml): 158001 CFU
CFU ([6]; ABA 60(*) μg/ml, (*)concentration considered bactericide): 100000 CFU
CFU [7]: 585000 CFU
CFU ([8]; ABA 30 μg/ml): 529000 CFU
CFU ([8]; ABA 60(*) μg/ml, (*)considered fungicide): 256000 CFU
CXCL10 mRNA, % of inhibition vs Media (normalized) [2]: 140.1%
DEF-4 mRNA, % of inhibition vs Media (normalized) [2]: −64.8%
ICAM-1 mRNA, % of inhibition vs Media (normalized) [2]: −40.6%
IFNg mRNA, % of inhibition vs Media (normalized) [2]: −10.7%
IL-8 mRNA, % of inhibition vs Media (normalized) [2]: −71.5%
IL-17A mRNA, % of inhibition vs Media (normalized) [2]: 9.3%
IL-20 mRNA, % of inhibition vs Media (normalized) [2]: −27.8%
K-16 mRNA, % of inhibition vs Media (normalized) [2]: 24.9%
LNC2 mRNA, % of inhibition vs Media (normalized) [2]: −45.7%
CCL13 mRNA, % of inhibition vs Media (normalized) [3]: −59.2%
CCL17 mRNA, % of inhibition vs Media (normalized) [3]: −70.1%
CCL18 mRNA, % of inhibition vs Media (normalized) [3]: −72.9%
CCL26 mRNA, % of inhibition vs Media (normalized) [3]: −44.2%
FLG mRNA, % of inhibition vs Media (normalized) [3]: 8.3%
IFNg mRNA, % of inhibition vs Media (normalized) [3]: 9.2%
IL-13 mRNA, % of inhibition vs Media (normalized) [3]: −79.0%
K16 mRNA, % of inhibition vs Media (normalized) [3]: −69.1%
LOR mRNA, % of inhibition vs Media (normalized) [3]: −45.5%
CFU [9]: 367500 CFU
CFU ([10]; ABA 50 μg/ml): 289500 CFU
CFU ([10]; ABA 60 μg/ml): 268000 CFU
CFU [11]: 287200 CFU
CFU on coupons [12]: 360000 CFU
CFU on coupons [13]: 243667 CFU
